In patent US20160184322A1 (priority 2013, published 2016):
Like-named read-outs stand apart in the source and are kept apart here.

Key:
[1] = tested on: moderate to severe TBI patients; details: cited from earlier work
[2] = males; cited from earlier work
[3] = tested on: rats that have suffered a concussion; experiment: Morris Water Maze latency to platform in mTBI (concussion) model (FIG. 8); assay type: in vivo, rat; details: vs vehicle-injured rats
rats suffering from TBI = details: cited from earlier work; for brain water content (measure of edema): 72 hours post-injury, ent-Prog 16 mg/kg
glutathione reductase [4] = experiment: Glutathione reductase assay in rat model of mTBI (three repeated impacts); assay type: in vivo, Sprague Dawley rats; details: 16 mg/kg intraperitoneal 15 minutes after last impact; tissue 24 hours after drug; one-way ANOVA p=0.675
Source text: Glutathione reductase assay was used to measure the antioxidant capacity of PRV-001. Glutathione reductase (GR) is an enzyme which catalyzes the reduction of glutathione (GSSR) to reduced glutathione (GSH). GSH is an important intracellular antioxidant that reacts with oxygen free radicals which are harmful to the cell. High GSH to GSSR ratio is important to cellular survival and GR catalyzes the reduction, therefore becoming an important indicator of antioxidant capacity.
Sprague Dawley rats were obtained from Charles River Laboratories and subjected to three repeated impacts spaced 20 minutes apart. Prior to surgery, animals were anesthetized via inhalation with an initial induction with 5% isofluorane with oxygen at a rate of […] a Matrix 3000 Isofluorane Vaporizer (Midmark, Versailles, Ohio). […] The animal's scalp was shaved and cleaned with a 70% isopropanol solution and 10% betadine solution (Med-Vet International, Mettawa, Ill.). During the surgery, anesthesia was maintained at 2.5% isofluorane with oxygen at a rate of 500-1000 mL/min. The animal's head was then secured in a stereotaxic apparatus (David Kopf Instruments, Tujanga, Calif.) and a medial incision was performed and the scalp pulled back with bulldogs clips over the right frontal and parietal bone. […]

SH-SY5Y cells [5] = experiment: Lactate dehydrogenase release after oxygen and glucose deprivation (OGD); assay type: cell-based; details: for most effective concentrations to attenuate OGD-induced LDH release: both the 0 and 24 hour post-OGD time points
SH-SY5Y cells [6] = experiment: LDH release after t-BOOH-induced oxidative stress; assay type: cell-based; details: 25 μM t-BOOH 6 hours, 24 hours pre-treatment 1-80 μM; for LDH release following exposure to oxidative stress, group differences: ANOVA p=0.214
rodents following injury = details: cited from earlier work; for most beneficial concentration for reducing edema, inflammation, oxidative stress and cell death within the penumbral region: IP, moderate to severe TBI model, 72 hours following injury
severe TBI patients = details: six months; cited from earlier work
glutathione reductase [7] = details: 72 hours post-injury, compared to all other groups, p<0.01; cited from earlier work
[8] = biological target: T1, classical progesterone receptor (PR) (Homo sapiens, UniProt P06401); details: cited from earlier work
T1 sequence (P06401 1-933): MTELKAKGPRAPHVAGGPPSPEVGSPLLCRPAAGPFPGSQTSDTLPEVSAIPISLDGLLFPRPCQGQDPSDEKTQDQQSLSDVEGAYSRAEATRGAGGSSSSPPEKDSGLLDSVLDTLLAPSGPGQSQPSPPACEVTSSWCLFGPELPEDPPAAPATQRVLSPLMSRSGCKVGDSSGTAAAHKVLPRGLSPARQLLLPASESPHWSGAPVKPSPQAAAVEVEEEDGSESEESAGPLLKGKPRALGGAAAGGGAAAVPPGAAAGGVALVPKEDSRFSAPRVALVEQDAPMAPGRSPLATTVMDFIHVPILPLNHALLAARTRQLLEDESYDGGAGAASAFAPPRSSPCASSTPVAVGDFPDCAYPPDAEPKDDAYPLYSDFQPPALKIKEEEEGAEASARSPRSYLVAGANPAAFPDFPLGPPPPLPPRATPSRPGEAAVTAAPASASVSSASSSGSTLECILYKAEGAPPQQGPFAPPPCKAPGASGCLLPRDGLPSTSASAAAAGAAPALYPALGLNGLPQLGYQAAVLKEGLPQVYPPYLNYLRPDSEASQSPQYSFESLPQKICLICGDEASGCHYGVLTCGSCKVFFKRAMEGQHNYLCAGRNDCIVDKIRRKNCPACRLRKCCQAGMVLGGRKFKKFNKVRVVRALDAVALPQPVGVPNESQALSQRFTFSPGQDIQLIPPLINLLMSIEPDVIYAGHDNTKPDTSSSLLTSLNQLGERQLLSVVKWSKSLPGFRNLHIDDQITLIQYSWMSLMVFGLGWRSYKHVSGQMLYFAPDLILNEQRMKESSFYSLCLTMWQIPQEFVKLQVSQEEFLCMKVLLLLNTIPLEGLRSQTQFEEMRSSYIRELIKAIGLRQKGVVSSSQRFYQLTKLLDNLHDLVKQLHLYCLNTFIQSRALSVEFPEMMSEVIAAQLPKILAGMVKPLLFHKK

In the case of `CC(=O)[C@H]1CC[C@H]2[C@@H]3CCC4=CC(=O)CC[C@]4(C)[C@H]3CC[C@]12C` [Prog, progesterone], the “30 days post-injury outcomes (Glasgow Outcome Scale-Extended and Disability Rating Scale)” value ([1]; moderate TBI patients) is listed as “better outcomes”, the reduction in mortality ([1]; moderate to severe TBI patients, 72 hours of continuous intravenous Prog) is listed as 50% and the “30 days post-injury outcomes (Glasgow Outcome Scale-Extended and Disability Rating Scale)” value ([1]; patients with severe brain injuries) is listed as “little measurable difference”. The “conversion of testosterone to dihydrotestosterone” value [2] was “inhibits”, the “size of reproductive organs” value [2] was “reduces” and the spermatogenesis [2] was “suppresses”. For the same molecule, the “latency to platform (Morris Water Maze)” value ([3]; post-acutely (15 minutes post)) was “decreases latency to platform”, the “latency to platform (Morris Water Maze)” value ([3]; prophylactically (15 minutes prior)) was “decreases latency to platform” and the “brain water content (measure of edema)” value (rats suffering from TBI) was “normalizes brain water content”. The “glutathione reductase activity (Δ Absorbance 340 nm/min), difference between groups” value (glutathione reductase [4]) was “failed to reveal a significant difference”, the “LDH release compared to other treated groups” value (SH-SY5Y cells [5]) was “significant reduction” and the “promoting cellular survival following oxygen and glucose deprivation, PRV-001 compared with progesterone” value (SH-SY5Y cells [5]) was “equally effective”. For the same molecule, the “LDH release compared to other treated groups” value (SH-SY5Y cells [5]; 0 h post-OGD, 1 μM progesterone vs 80 uM progesterone) was “significant reduction”, the “LDH release compared to other treated groups” value (SH-SY5Y cells [5]; 0 h post-OGD, 10 μM progesterone vs 80 μM progesterone) was “significant reduction” and the “LDH release compared to control cells that did not undergo OGD” value (SH-SY5Y cells [5]; 0 h post-OGD, 20 μM and 80 μM progesterone) was “significantly higher”. For the same molecule, the “LDH release compared to other treated groups” value (SH-SY5Y cells [5]; 0 h post-OGD, 20 μM progesterone vs 80 μM progesterone) was “significant reduction”, the “LDH release compared to control cells not exposed to OGD” value (SH-SY5Y cells [5]; 0 h post-OGD, 1, 5, 10 and 40 μM progesterone) was “not significantly different” and the “LDH release compared to untreated cells exposed to OGD” value (SH-SY5Y cells [5]; 0 h post-OGD, all progesterone concentrations except 80 μM) was “significant reduction”. For the same molecule, the “LDH release compared to control cells not exposed to OGD” value (SH-SY5Y cells [5]; 24 hours post-OGD, 1 μM and 40 μM progesterone) was “increased”, the “LDH release compared to other treated groups” value (SH-SY5Y cells [5]; 24 hours post-OGD, 10 μM progesterone vs 40 μM progesterone) was “significant reduction” and the “LDH release compared to untreated cells exposed to OGD” value (SH-SY5Y cells [5]; 24 hours post-OGD, 40 μM progesterone) was “except for those treated with 40 μM progesterone”. The “LDH release compared to other treated groups” value (SH-SY5Y cells [5]; 24 hours post-OGD, 80 μM progesterone vs 40 μM progesterone) was “significant reduction”, the “LDH release compared to control cells not exposed to OGD” value (SH-SY5Y cells [5]; 24 hours post-OGD, 5, 10, 20 and 80 μM progesterone) was “not significantly different” and the “LDH release compared to untreated cells exposed to OGD” value (SH-SY5Y cells [5]; 24 hours post-OGD, all progesterone groups except 40 μM) was “significant reduction”. For the same molecule, the “most effective concentrations to attenuate OGD-induced LDH release” value (SH-SY5Y cells [5]) was 5 µM and 10 µM, the “oxidative stress-induced cellular damage and death (LDH release), trend” value (SH-SY5Y cells [6]) was “trend towards amelioration” and the “LDH release following exposure to oxidative stress, group differences” value (SH-SY5Y cells [6]) was “significant group differences were not observed”. For the same molecule, the “most beneficial concentration for reducing edema, inflammation, oxidative stress and cell death within the penumbral region” value (rodents following injury) was 16 mg/kg, the edema (rodents following injury; both rodent sexes following injury) was “effectively attenuates” and the “inflammatory factors (TNF-a and IL-10)” value (rodents following injury; following injury) was “inhibiting”. For the same molecule, the “presence of factors of cell death (caspase-3) and gliosis (GFAP)” value (rodents following injury; following injury) was “decreased”, the “Neurological Severity Score (motor and cognitive functioning)” value (rodents following injury; rats following injury) was “significant improvements” and the neurological outcomes long-term (severe TBI patients) was “better neurological outcomes”.
In the case of `CC(=O)[C@@H]1CC[C@@H]2[C@H]3CCC4=CC(=O)CC[C@@]4(C)[C@@H]3CC[C@]21C` [ent-Prog, ent-progesterone], the “brain water content (measure of edema)” value (rats suffering from TBI) is listed as “normalizes brain water content”, the “reduction of moderate to severe brain injury-induced edema, compared with Prog” value (rats suffering from TBI; moderate to severe TBI) is listed as “equal efficacy to Prog” and the “glutathione reductase activity (Δ Absorbance 340 nm/min), difference between groups” value (glutathione reductase [4]) is listed as “failed to reveal a significant difference”. The “LDH release compared to control cells that did not undergo OGD” value (SH-SY5Y cells [5]) was “significantly higher”, the “LDH release compared to other treated groups” value (SH-SY5Y cells [5]) was “significant reduction” and the “LDH release compared to untreated cells exposed to OGD” value (SH-SY5Y cells [5]) was “significant reduction”. The “promoting cellular survival following oxygen and glucose deprivation, PRV-001 compared with progesterone” value (SH-SY5Y cells [5]) was “equally effective”, the “most effective concentrations to attenuate OGD-induced LDH release” value (SH-SY5Y cells [5]) was 5 µM and 10 µM and the “anti-oxidant activity of glutathione reductase” value (glutathione reductase [7]) was “significantly increases”. For the same molecule, the “oxidative stress-induced cellular damage and death (LDH release), trend” value (SH-SY5Y cells [6]) was “trend towards amelioration”, the “LDH release following exposure to oxidative stress, group differences” value (SH-SY5Y cells [6]) was “significant group differences were not observed” and the “most beneficial concentration for reducing edema, inflammation, oxidative stress and cell death within the penumbral region” value (rodents following injury) was 16 mg/kg. The “activation of the classical progesterone receptor (PR)” value [8] was “does not activate”.
In the case of `CC(=O)[C@H]1CC[C@H]2[C@@H]3CC[C@H]4C[C@H](O)CC[C@]4(C)[C@H]3CC[C@]12C` [allopregnanolone], the “brain water content (measure of edema)” value (rats suffering from TBI) is listed as “normalizes brain water content” and the “presence of factors of cell death (caspase-3) and gliosis (GFAP)” value (rodents following injury; following injury) is listed as “decreased”.
